From paper PMC8607422, “Development of a novel TLR8 agonist for cancer immunotherapy” (Molecular Biomedicine, 2020) come the findings set out here.

One data set has as its target T1, hTLR8 (Homo sapiens, UniProt Q9NR97).
T1 construct: host or cells: HEK-Blue hTLR8 (HEK293-derived, per own knowledge)
T1 sequence (Q9NR97 27-1041): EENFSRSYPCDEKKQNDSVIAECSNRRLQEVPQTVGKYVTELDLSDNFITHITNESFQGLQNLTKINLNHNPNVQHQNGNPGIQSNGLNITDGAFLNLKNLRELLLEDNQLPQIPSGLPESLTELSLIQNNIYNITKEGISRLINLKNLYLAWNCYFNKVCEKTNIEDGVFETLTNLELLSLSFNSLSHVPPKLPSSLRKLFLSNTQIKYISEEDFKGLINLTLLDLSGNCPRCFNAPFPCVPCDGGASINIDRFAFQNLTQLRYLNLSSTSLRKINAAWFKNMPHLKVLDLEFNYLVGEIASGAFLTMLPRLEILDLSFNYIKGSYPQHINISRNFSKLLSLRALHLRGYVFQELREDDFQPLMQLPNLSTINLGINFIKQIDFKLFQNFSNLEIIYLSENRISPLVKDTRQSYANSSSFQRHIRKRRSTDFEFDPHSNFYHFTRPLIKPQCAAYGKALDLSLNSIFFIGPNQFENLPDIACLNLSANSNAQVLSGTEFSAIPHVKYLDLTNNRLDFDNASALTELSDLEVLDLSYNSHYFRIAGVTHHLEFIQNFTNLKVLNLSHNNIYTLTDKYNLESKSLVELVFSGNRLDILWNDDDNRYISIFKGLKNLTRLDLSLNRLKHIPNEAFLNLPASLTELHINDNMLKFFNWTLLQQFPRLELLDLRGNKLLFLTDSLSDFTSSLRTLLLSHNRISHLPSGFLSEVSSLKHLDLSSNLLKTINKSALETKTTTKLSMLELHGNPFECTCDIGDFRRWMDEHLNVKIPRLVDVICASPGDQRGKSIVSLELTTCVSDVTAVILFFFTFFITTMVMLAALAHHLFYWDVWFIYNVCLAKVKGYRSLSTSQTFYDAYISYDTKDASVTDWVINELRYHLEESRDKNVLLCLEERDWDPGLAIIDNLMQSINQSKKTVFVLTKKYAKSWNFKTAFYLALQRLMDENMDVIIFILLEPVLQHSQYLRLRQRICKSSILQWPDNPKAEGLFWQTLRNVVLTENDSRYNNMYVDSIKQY
As to the kind of experiment: HEK-Blue hTLR8 SEAP reporter agonist assay. Type of data set: cell-based. The source says:
HEK-Blue™ hTLR4, 7, 8 and 9 cell lines were purchased from InvivoGen (Hong Kong). The cells express the human TLR gene and NF-κB/AP-1-inducible SEAP (secreted embryonic alkaline phosphatase) reporter gene. SEAP levels produced upon TLR stimulation can be determined by QUANTI-Blue™. In the cell-based assay, the main reagents used were QUANTI-Blue™ (InvivoGen) and ATPlite 1 Step (Perkin Elmer). The main instruments used were the microplate reader SpectraMax 340PC (Molecular Device) and Envision (Perkin Elmer). […] The compounds were in 10 mM stock solution in DMSO and stored at − 20°C. […] DMSO was used as the negative control. […] The cells were cultured and treated with the compounds at 37°C, 5%CO2 for 24 h. After 24 h of incubation, 20 μl of the supernatant of each well was added to 180 μl of QUANTI-Blue™. The plates were incubated at 37°C for 1.5 h. After 1.5 h of incubation, the optical density was measured using the spectrophotometer at 650 nm in the microplate reader of SpectraMax 340PC. The cell viability of each well was determined using ATPlite 1 Step following the manufacturer’s instruction. The luminescence signal in each well of plates was measured in the microplate reader of Envision.

The next data set in a line: in vivo. Details: species or system cynomolgus monkeys. The following applies: cynomolgus, cynomolgus monkey, sc, 1 mg/kg. The protocol: To determine the in vivo pharmacokinetic profiles, the compounds were formulated with 11% captisol and then administered iv, ip, sc and po into Sprague Dawley rats or iv and sc into mice or cynomolgus monkeys, respectively. Blood samples were collected before dosing and 0.083 h, 0.25 h, 0.5 h, 1 h, 2 h, 4 h, 6 h, 8 h, 12 h and 24 h after dosing. Blood samples were collected in tubes containing K2EDTA. Plasma was isolated from the blood samples by centrifugation of the blood samples at 2400 × g for 5 min at 4°C. Plasma samples were measured using LC-MS/MS (Waters ACQUITY UPLC and TQ 6500+) to determine the concentration of compounds. The data was analyzed using WinNonlin 7.0 to calculate the PK parameters such as AUC0-t, AUC0-∞, MRT0-∞, Cmax, Tmax, t1/2 and F.

In a further data set the test system is HL-60 cells. Put plainly: Nitroblue Tetrazolium (NBT) cell differentiation assay. Type of data set: cell-based. The settings on record: Homo sapiens, unit from concentration axis. The source says:
Supplementary file 43556_2020_7_MOESM1_ESM.pdf: Additional file 1: Supplementary Fig. 1. […] Suplementary Fig. 2. […] Supplementary Fig. 3. Nitroblue Tetrazolium (NBT) cell differentiation assay. […] Supplementary Fig. 4. Representative data from human PBMC assay. […] Similar results were obtained from two different donors.

In the case of `CCCN(CCC)C(=O)C1=Cc2ccc(-c3ccc(C(=O)N4CCCC4)cc3)cc2N=C(N)C1` [Motolimod, motolimod], the EC50 (in general, the midpoint of the concentration-response curve) on hTLR8 (HEK-Blue hTLR8 cells, 24 h, SEAP, read-out: EC50 in hTLR8 agonist activity (TLR8 cell EC50)) turned out to be 109 nM. In addition, the TLR8 selectivity at hTLR8 (TLR8 over other TLR cell EC50) was 182 fold. Besides, in the data set “in vivo”, the total exposure AUC(0-inf) – broadly, total exposure, with the tail of the curve extrapolated – is 270 ng·h/mL; the area under the curve AUC(0-t) (commonly exposure summed from dosing to a finite time, without extrapolation to infinity) was 270 ng·h/mL; the peak concentration (Cmax) (as a rule, the maximum level reached in the sampled fluid or tissue) was found to be 80 ng/mL; the MRT inf – broadly, a mean duration of stay, worked out from the concentration-time curve – was found to be 2.95 h. For the same compound, in the data set “in vivo”, the time of peak concentration (Tmax) (usually the time from dosing to the highest level) came to 2 h and the half-life (usually the time needed for the level to fall by half in the phase considered) is 1.43 h. The compound further had an EC50 in the data set with HL-60 cells of 1430 nM.
